According to paper PMC10054552, “Phototoxic Potential of Different DNA Intercalators for Skin Cancer Therapy: In Vitro Screening” (International Journal of Molecular Sciences, 2023):
Like-named read-outs stand apart in the source and are kept apart here.

Columns and labels:
[1] = test system: MET1 cells; test: Cytotoxicity (resazurin cell viability) in MET1 cells; assay type: cell-based, human; details: Homo sapiens, MET-1, MET1 cells, 1.25-320 µM
Description: (§1) The MET1 SCC cell line (human squamous cell carcinoma) was obtained from Ximbio (London, UK), HaCaT (immortalized human keratinocytes cell line) was obtained from Addexbio (San Diego, CA, USA) and WM983b (human metastatic melanoma cell line) was obtained from Rockland (Pottstown, PA, USA). Cells were maintained in Dulbecco’s Modified Eagle Medium (DMEM) supplemented with 10% (v/v) fetal bovine serum (FBS) for MET1 and HaCaT and 5% (v/v) for WM983b cells, and Pen–Strep (penicillin 100 U/mL and streptomycin 100 µg/mL). Cells were cultivated in an incubator (Sanyo MCO-19AIC-UV) at 37 °C in a 5% CO2 humidified atmosphere.
(§2) First, 96-well plates were seeded with HaCaT and MET1 cells at a density of 20,000 cells/cm² and incubated for 24 h. After that period, the culture medium was replaced by culture medium containing different compounds: MB, AO, GV, QT, CUR, EGCG, PHE, NEO and BIPY. The compounds were diluted in culture medium using a range of concentrations of each compound from 1.25 µM to 320 µM (in quadruplicate). The medium was aspirated from the 96-well plate and replaced by the samples diluted in medium. Cells cultured with complete medium and cells cultured with medium supplemented with 0.2% (v/v) or 10% (v/v) of DMSO were used as negative (NC), solvent (SC) and positive controls (PC), respectively. The plates were incubated for 24 and 48 h, followed by evaluation of cell viability using a colorimetric assay. Cells containing samples were washed with PBS supplemented with calcium and magnesium; then, resazurin solution diluted in DMEM at 0.02 mg/mL was added. The medium containing resazurin was also dispensed in wells without cells, which were used as references. After 3 h of incubation, the absorbance was measured in a microplate reader (ELX800UV, Biotek Instruments) at wavelengths of 570 nm and 600 nm. The corrected absorbance was proportional to cell viability. Propagation of uncertainties was used to calculate the combined standard uncertainty. For the cytotoxicity study using WM983b cells, plates were seeded at a density of 40,000 cells/cm², and cells were treated only with MB and AO.

[2] = test system: MET1 cells; test: Phototoxicity assay in MET1 cells (irradiation 2.5 J/cm², resazurin); assay type: cell-based, human; details: Homo sapiens, MET-1, light or radiation study, MET1 cells, treated 24 h
Procedure: (§3) The […] SCC cell line (human squamous cell carcinoma) was obtained from Ximbio (London, UK), HaCaT (immortalized human keratinocytes cell line) was obtained from Addexbio (San Diego, CA, USA) and WM983b (human metastatic melanoma cell line) was obtained from Rockland (Pottstown, PA, USA). […] Cells were cultivated in an incubator (Sanyo MCO-19AIC-UV) at 37 °C in a 5% CO2 humidified atmosphere. […] The plates were incubated for 24 h, followed by washing with PBS supplemented with calcium and magnesium. Afterwards, complete culture medium without phenol red was added, and the plates were irradiated from above and submitted to a dose of 2.5 J/cm2 of irradiation emitted by different wavelength light sources coupled with a homemade irradiation system created in our laboratory. […] This experiment was performed in an incubator that was able to keep plates in a dark environment; therefore, the dark control plates were protected from any light source, as well as the others, with the exception of the irradiation that each one was submitted to. Plates were incubated for another 24 h, and finally, the resazurin assay was performed as previously described in Section 3.3. For the phototoxicity study using WM983b cells, plates were prepared at a cell density of 40,000 cells/cm2, and cells were treated with MB and AO only.

[3] = as above; assay type: cell-based, human; details: human, MET1 squamous cell carcinoma cells; MET1 cells, 457 nm, all investigated concentrations (1.25-40 µM); read-out: cell viability under 457 nm light
Procedure: as §3

[4] = test system: WM983b cells; test: Phototoxicity assay in WM983b cells (irradiation 2.5 J/cm², resazurin); assay type: cell-based; details: Homo sapiens, light or radiation study, treated 24 h
Description: as §1
For the phototoxicity studies, 96-well plates were seeded with MET1 cells at a density of 20,000 cells/cm², incubated overnight and treated for 24 h with MB, AO, GV, QT, CUR, EGCG, PHE, NEO and BIPY diluted in culture medium in a concentration range of 1.25 µM to 40 µM (in sextuplicate). […] Cells cultured with complete medium and cells cultured with medium supplemented with 0.2% (v/v) or 10% (v/v) of DMSO were used as negative (NC), solvent (SC) and positive control (PC), respectively. The plates were incubated for 24 h, followed by washing with PBS supplemented with calcium and magnesium. Afterwards, complete culture medium without phenol red was added, and the plates were irradiated from above and submitted to a dose of 2.5 J/cm² of irradiation emitted by different wavelength light sources coupled with a homemade irradiation system created in our laboratory. These light sources consisted of an equivalent 26 cm UV tubular lamp (254 nm) (Phillips TUV PLS 9W/2PHg) and a tricolor LED lamp (Led Grow Light Bulb E26/E27) with intensity peaks at 457 nm (blue light), 583 nm (yellow light) and 640 nm (red light) provided by 18, 18 and 28 LEDs, respectively, with dimensions of 3 × 3 mm^2. The irradiance values of light at 254, 457, 583 and 640 nm wavelengths were of 16.7, 55, 45 and 25 W/m^2, respectively. This experiment was performed in an incubator that was able to keep plates in a dark environment; therefore, the dark control plates were protected from any light source, as well as the others, with the exception of the irradiation that each one was submitted to. Plates were incubated for another 24 h, and finally, the resazurin assay was performed as previously described in Section 3.3. For the phototoxicity study using WM983b cells, plates were prepared at a cell density of 40,000 cells/cm², and cells were treated with MB and AO only.

[5] = test system: HaCaT cells; test: Cytotoxicity (resazurin cell viability) in HaCaT cells; assay type: cell-based, human; details: Homo sapiens, HaCaT cells, 1.25-320 µM
Description: as §1, §2

[6] = test system: WM983b cells; test: Cytotoxicity (resazurin cell viability) in WM983b cells; assay type: cell-based, human; details: for IC50: Homo sapiens, 1.25-320 µM
Description: as §1, §2

Q: What does the source list for CN(C)c1ccc2cc3ccc(N(C)C)cc3nc2c1 [Acridine orange, acridine orange]?
A: IC50 ([1]; 24 h exposure, read-out: IC50 MET1 Cells 24 h): 15.1 µM; IC50 ([1]; 48 h exposure, read-out: IC50 MET1 Cells 48 h): 10.3 µM; IC50 ([2]; 254 nm light, 2.5 J/cm², read-out: IC50 254 nm): 7.1 µM; IC50 ([2]; 457 nm light, 2.5 J/cm², read-out: IC50 457 nm): 0.4 µM; IC50 ([2]; 583 nm light, 2.5 J/cm², read-out: IC50 583 nm): 4.1 µM; IC50 ([2]; 640 nm light, 2.5 J/cm², read-out: IC50 640 nm): 6.6 µM; IC50 ([2]; dark control (no irradiation), read-out: IC50 Dark): 11.5 µM; viability at 24 h [3]: < 10%; IC50 ([4]; 457 nm light, 2.5 J/cm², read-out: IC50 irradiated samples (457 nm)): 1.1 µM; IC50 ([4]; without irradiation, read-out: IC50 non-irradiated samples): 17.5 µM; IC50 ([5]; 24 h exposure, read-out: IC50 HaCaT Cells 24 h): 10.5 µM; IC50 ([5]; 48 h exposure, read-out: IC50 HaCaT Cells 48 h): 6.5 µM; concentration above which the relative cell population falls below 70% ([6]; 24 or 48 h): > 20 µM; IC50 ([6]; 24 h exposure, read-out: IC50 WM983b cells 24 h): 25.2 µM; IC50 ([6]; 48 h exposure, read-out: IC50 WM983b cells 48 h): 6.6 µM
